Experimental data published in US20040110821A1, “GAL3 receptor antagonists for the treatment of affective disorders” (priority 2002, published 2004).
pKi: −log10 of the molar value.

Columns and labels:
[1] = target: T1, human dopamine D4 receptor (Homo sapiens, UniProt P21917); assay: Binding at human dopamine D4 receptor; conditions: read-out: hD4 Ki
T1 construct: purchased BioSignal, Inc. (Montreal, Canada)
Description: (§1) Other receptors: Cell membranes expressing human dopamine D1, D2, D4 and rat D3 receptors were purchased through BioSignal, Inc. (Montreal, Canada). Binding assays using the histamine H1 receptor; dopamine receptors; and α1A, α1B, and α2 adrenergic receptors may be carried out according to the procedures described in U.S. Pat. No. 5,780,485, the disclosure of which is hereby incorporated by reference in its entirety into this application. Binding assays using the dopamine D5 receptor may be carried out according to the procedures described in U.S. Pat. No. 5,882,855, the disclosure of which is hereby incorporated by reference in its entirety into this application. Binding assays for the human α1D adrenergic receptor may be carried out according to the procedures described in U.S. Pat. No. 6,156,518, the disclosure of which is hereby incorporated by reference in its entirety into this application.
(§2) Binding data were analyzed using nonlinear regression and statistical techniques available in the GraphPAD Prism package (San Diego, Calif.). Enzymatic assay data were derived from a standard curve of reference compound data.

human 5HT1F receptor = target: T2, human 5HT1F receptor (Homo sapiens, UniProt P30939); assay: Radioligand binding at human 5HT1F receptor; conditions: read-out: h5HT1F Ki
T2 construct: expressed in transfected cells
T2 sequence (P30939 whole entry): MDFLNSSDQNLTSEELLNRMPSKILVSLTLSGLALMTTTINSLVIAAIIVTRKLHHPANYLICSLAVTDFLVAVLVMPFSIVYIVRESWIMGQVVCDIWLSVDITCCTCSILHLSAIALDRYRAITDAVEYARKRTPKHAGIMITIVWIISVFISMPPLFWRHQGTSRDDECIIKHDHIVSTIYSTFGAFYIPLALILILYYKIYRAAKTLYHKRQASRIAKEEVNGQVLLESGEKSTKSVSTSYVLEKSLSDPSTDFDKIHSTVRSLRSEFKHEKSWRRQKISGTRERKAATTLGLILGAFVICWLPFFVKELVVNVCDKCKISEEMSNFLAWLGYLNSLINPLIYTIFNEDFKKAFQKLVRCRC
Experimental: (§3) Human 5HT1B, 5HT1D, 5HT1E, 5HT1F, and 5HT7 ReceDtors: The cell lysates of LM(tk-) clonal cell line stably transfected with the genes encoding each of these 5HT receptor-subtypes were prepared as described above. Cell membranes were suspended in 50 mM Tris-HCl buffer (pH 7.4 at 37° C.) containing 10 mM MgCl2, 0.2 mM EDTA, 10 µM pargyline, and 0.1% ascorbate. […] Nonspecific binding was determined in the presence of 10 μM serotonin. The bound radioligand was separated by filtration through GF/B filters using a cell harvester.
as §2

[2] = target: T3, Monoamine Oxidase B (central) (Rattus norvegicus, UniProt P19643); assay: Central Monoamine Oxidase B Enzyme Assay; type: biochemical; conditions: rat brain as enzyme source
T3 construct: Rat brain was used as the enzyme source; tissue NovaScreen (Hanover, Md.) performed the assay; host or cells: rat brain
T3 sequence (P19643 whole entry): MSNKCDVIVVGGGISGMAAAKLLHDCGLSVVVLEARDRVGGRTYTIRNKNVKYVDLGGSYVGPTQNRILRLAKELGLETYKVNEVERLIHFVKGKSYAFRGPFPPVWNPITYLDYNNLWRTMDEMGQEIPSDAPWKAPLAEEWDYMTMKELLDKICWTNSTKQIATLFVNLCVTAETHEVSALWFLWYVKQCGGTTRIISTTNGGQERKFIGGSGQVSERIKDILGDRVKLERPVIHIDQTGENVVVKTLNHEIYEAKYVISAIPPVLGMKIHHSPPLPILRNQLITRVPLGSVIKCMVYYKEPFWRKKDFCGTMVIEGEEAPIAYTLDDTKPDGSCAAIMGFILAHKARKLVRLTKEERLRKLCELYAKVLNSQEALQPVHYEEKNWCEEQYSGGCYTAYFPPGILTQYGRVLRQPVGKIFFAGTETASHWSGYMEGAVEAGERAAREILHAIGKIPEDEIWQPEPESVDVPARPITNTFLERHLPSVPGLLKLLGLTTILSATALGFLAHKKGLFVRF
Experimental: (§4) The methods to determine activity at monoamine oxidase enzymes (for example, central MAOA and MAOB) are described by Otsuka and Kobayashi, 1964, and were performed by NovaScreen (Hanover, Md.) with the following modifications.
Central Monoamine Oxidase B Enzyme Assay: Rat brain was used as the enzyme source. The assay was performed as described above for central MAOA, except the reference compound was RO 166491 and the subtype selective blocker was 100 nM clorgyline. Also, the substrate ([^14C]Phenylethylamine, 0.056 Ci/mmol) was added and incubated for 10 minutes.
as §2

rat D3 receptor = target: T4, rat D3 receptor (Rattus norvegicus, UniProt P19020); assay: Binding at rat dopamine D3 receptor; conditions: read-out: rD3 Ki
T4 construct: purchased BioSignal, Inc. (Montreal, Canada)
T4 sequence (P19020 whole entry): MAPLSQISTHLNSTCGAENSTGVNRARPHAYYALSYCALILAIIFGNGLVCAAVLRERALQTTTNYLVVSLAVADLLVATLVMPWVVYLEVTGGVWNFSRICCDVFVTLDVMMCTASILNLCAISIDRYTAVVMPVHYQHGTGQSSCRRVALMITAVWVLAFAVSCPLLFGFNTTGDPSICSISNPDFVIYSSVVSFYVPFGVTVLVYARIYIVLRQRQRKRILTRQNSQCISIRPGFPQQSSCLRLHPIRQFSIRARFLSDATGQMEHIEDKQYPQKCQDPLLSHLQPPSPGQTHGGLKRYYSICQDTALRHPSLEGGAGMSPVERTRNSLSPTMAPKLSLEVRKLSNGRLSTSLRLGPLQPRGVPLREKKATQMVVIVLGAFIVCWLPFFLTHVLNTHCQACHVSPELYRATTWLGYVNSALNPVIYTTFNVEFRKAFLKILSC
Description: as §1, §2

[3] = target: T5, human α1D adrenergic receptor (Homo sapiens, UniProt P25100); assay: Binding at human α1D adrenergic receptor; conditions: read-out: hα1D Ki
T5 construct: expressed in transfected cells
T5 sequence (P25100 whole entry): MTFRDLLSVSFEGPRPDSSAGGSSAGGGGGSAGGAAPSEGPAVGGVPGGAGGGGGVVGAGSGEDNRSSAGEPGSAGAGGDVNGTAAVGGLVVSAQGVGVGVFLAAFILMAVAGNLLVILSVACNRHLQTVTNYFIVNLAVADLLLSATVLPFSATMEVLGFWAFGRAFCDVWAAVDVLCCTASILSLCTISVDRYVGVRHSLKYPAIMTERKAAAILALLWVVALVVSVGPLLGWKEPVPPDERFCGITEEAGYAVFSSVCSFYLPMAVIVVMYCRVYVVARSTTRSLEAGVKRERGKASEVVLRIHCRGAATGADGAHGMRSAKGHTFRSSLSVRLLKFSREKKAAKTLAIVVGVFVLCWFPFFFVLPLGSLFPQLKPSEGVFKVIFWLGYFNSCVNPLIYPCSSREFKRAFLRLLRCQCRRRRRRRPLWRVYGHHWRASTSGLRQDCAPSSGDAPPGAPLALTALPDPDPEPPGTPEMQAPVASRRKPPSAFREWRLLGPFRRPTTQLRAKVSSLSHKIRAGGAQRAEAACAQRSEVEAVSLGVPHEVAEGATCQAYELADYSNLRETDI
Description: as §1, §2

[4] = target: T6, human dopamine D1 receptor (Homo sapiens, UniProt P21728); assay: Binding at human dopamine D1 receptor; conditions: read-out: hD1 Ki
T6 construct: purchased BioSignal, Inc. (Montreal, Canada)
T6 sequence (P21728 whole entry): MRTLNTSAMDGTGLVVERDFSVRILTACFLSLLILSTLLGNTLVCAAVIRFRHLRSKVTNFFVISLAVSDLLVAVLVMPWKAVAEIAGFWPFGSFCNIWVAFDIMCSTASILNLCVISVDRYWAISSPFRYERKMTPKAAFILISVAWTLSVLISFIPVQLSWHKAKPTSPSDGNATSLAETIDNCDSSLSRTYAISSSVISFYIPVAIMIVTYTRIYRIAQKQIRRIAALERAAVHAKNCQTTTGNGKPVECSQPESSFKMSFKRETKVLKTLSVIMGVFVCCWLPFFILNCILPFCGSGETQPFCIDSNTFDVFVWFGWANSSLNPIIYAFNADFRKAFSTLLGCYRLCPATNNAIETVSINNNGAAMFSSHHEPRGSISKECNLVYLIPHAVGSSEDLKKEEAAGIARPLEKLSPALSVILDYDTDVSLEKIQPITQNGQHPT
Description: as §1, §2

[5] = target: T7, Monoamine Oxidase A (central) (Rattus norvegicus, UniProt P21396); assay: Central Monoamine Oxidase A Enzyme Assay; type: biochemical; conditions: rat brain as enzyme source
T7 construct: Rat brain was used as the enzyme source; tissue NovaScreen (Hanover, Md.) performed the assay; host or cells: rat brain
T7 sequence (P21396 whole entry): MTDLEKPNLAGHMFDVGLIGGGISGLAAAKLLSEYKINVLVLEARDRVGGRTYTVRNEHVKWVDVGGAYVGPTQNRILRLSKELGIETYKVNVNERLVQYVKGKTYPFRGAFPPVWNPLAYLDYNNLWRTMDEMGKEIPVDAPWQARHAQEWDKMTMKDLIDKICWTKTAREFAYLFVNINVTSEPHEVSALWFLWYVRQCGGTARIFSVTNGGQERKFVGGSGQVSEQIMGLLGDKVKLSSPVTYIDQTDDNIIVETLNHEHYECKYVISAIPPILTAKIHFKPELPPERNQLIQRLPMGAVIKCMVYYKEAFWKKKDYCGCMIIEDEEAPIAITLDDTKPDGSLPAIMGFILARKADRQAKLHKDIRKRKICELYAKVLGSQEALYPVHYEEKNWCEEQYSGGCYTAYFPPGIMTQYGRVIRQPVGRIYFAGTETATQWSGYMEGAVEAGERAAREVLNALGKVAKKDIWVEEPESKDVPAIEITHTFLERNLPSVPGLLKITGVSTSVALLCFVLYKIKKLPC
Experimental: as §4
Central Monoamine Oxidase A Enzyme Assay: Rat brain was used as the enzyme source. The enzyme source was pre-incubated with reference compound (RO 41-1049), test compound (Example 92), and subtype selective blocker (100 nM deprenyl) for 60 minutes at 37° C. in 50 mM KPO4 containing 50 μM EDTA and 10 μM dithiothreitol (pH 7.2 at 25° C.). Substrate ([^14C]Serotonin, […]) was then added and incubated for 30 minutes. The reaction was stopped by the addition of 0.5 ml of 1-2M citric acid. Radioactive product was extracted into xylene/ethyl acetate fluor and compared to control values by scintillation spectrophotometry in order to ascertain any interactions of test compound with central MAOA.
as §2

human 5HT1B receptor = target: T8, human 5HT1B receptor (Homo sapiens, UniProt P28222); assay: Radioligand binding at human 5HT1B receptor; conditions: read-out: h5HT1B Ki
T8 construct: expressed in transfected cells
T8 sequence (P28222 whole entry): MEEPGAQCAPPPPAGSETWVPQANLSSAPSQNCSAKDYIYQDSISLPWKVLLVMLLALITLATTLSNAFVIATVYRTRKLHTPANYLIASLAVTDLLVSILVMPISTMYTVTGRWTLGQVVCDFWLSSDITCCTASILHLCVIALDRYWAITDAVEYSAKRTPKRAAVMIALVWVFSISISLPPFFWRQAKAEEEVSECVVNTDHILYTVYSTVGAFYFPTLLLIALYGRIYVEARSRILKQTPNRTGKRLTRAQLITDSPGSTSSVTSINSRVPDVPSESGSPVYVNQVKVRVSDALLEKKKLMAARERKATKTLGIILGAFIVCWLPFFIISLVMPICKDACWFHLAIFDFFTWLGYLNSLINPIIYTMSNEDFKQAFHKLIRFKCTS
Experimental: as §3, §2

human 5HT4 receptor = target: T9, human 5HT4 receptor (Homo sapiens, UniProt Q13639); assay: Radioligand binding at 5-HT4 receptor; conditions: read-out: h5HT4 Ki
T9 construct: expressed in transfected cells
T9 sequence (Q13639 whole entry): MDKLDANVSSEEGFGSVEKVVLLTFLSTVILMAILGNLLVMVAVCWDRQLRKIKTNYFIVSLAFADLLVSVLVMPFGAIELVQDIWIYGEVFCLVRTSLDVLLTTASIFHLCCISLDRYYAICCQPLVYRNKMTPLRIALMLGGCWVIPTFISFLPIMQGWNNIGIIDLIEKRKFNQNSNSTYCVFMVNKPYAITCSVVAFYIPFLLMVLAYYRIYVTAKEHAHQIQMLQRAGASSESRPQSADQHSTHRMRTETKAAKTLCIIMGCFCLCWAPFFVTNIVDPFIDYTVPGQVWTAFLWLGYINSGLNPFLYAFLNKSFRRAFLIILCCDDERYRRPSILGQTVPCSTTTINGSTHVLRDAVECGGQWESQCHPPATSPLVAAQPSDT
Experimental: Other 5-HT ReceDtors: Other serotonin receptor binding assays were performed according to published methods: rat 5HT2c receptor (Julius et al., 1988); and 5-HT6 (Monsma, et al., 1993). The binding assays using the 5-HT4 receptor were performed according to the procedures described in U.S. Pat. No. 5,766,879, the disclosure of which is hereby incorporated by reference in its entirety into this application.
as §2

[6] = target: T10, human α1B adrenergic receptor (Homo sapiens, UniProt P35368); assay: Binding at human α1B adrenergic receptor; conditions: read-out: hα1B Ki
T10 construct: expressed in transfected cells
T10 sequence (P35368 whole entry): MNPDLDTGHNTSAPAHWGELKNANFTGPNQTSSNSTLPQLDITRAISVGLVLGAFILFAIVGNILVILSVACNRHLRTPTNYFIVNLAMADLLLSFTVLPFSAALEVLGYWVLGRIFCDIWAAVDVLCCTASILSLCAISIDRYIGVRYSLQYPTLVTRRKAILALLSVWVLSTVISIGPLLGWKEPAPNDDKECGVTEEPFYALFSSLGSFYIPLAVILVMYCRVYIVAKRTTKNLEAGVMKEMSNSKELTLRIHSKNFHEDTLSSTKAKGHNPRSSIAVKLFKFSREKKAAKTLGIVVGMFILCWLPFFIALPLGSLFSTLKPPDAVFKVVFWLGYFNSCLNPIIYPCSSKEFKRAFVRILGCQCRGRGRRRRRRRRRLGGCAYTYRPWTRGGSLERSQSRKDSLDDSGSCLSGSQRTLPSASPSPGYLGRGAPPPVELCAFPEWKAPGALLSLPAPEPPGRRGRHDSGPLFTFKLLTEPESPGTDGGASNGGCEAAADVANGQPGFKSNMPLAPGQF
Description: as §1, §2

T1 sequence (P21917 whole entry): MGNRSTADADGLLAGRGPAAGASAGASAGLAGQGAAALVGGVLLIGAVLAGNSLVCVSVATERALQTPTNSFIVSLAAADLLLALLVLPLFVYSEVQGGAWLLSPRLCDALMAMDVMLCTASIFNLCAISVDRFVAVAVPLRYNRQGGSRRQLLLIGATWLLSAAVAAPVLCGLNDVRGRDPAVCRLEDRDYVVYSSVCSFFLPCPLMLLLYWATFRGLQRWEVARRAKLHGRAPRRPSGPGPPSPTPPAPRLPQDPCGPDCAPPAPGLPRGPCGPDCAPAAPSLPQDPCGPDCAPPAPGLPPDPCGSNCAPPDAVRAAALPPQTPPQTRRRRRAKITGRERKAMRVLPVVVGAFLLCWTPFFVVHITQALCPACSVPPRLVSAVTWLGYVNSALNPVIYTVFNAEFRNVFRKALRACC

## O=C1C(=Nc2cccc(C(F)(F)F)c2)c2ccccc2N1c1ccccc1 [Example 92, 1-PHENYL-3-[[3-(TRIFLUOROMETHYL)PHENYL]IMINO]-1,3-DIHYDRO-2H-INDOL-2-ONE]
[1]
  pKi: 4.38
Human 5HT1F receptor
  pKi: 5.28
[2]
  % INHIBITION: 1%
Rat D3 receptor
  pKi: 4.32
[3]
  pKi: 4.77
[4]
  pKi: < 4.30
[5]
  % INHIBITION: 10%
Human 5HT1B receptor
  pKi: 4.95
Human 5HT4 receptor
  pKi: 7.14
[6]
  pKi: < 4.30
